According to patent US5002942A, “1,5-benzothiazepine derivatives, their preparation and their use in the treatment of cardiovascular disorders” (Sankyo Company, Limited, priority 1988, dated 1991):

Key:
[1] = target: T1, calcium channel (Cavia porcellus, UniProt O35505); assay: Calcium channel blocking action (calcium-induced contraction of excised taenia coli); settings: 0.5 h, test compound 10^-8 g/ml, 30 minutes incubation, guinea pig taenia coli, hydrochlorides (Example 34: fumarate)
T1 construct: The taenia coli excised from a male guinea pig; from tissue; host or cells: guinea pig taenia coli (excised smooth muscle strip)
T1 sequence (O35505 whole entry): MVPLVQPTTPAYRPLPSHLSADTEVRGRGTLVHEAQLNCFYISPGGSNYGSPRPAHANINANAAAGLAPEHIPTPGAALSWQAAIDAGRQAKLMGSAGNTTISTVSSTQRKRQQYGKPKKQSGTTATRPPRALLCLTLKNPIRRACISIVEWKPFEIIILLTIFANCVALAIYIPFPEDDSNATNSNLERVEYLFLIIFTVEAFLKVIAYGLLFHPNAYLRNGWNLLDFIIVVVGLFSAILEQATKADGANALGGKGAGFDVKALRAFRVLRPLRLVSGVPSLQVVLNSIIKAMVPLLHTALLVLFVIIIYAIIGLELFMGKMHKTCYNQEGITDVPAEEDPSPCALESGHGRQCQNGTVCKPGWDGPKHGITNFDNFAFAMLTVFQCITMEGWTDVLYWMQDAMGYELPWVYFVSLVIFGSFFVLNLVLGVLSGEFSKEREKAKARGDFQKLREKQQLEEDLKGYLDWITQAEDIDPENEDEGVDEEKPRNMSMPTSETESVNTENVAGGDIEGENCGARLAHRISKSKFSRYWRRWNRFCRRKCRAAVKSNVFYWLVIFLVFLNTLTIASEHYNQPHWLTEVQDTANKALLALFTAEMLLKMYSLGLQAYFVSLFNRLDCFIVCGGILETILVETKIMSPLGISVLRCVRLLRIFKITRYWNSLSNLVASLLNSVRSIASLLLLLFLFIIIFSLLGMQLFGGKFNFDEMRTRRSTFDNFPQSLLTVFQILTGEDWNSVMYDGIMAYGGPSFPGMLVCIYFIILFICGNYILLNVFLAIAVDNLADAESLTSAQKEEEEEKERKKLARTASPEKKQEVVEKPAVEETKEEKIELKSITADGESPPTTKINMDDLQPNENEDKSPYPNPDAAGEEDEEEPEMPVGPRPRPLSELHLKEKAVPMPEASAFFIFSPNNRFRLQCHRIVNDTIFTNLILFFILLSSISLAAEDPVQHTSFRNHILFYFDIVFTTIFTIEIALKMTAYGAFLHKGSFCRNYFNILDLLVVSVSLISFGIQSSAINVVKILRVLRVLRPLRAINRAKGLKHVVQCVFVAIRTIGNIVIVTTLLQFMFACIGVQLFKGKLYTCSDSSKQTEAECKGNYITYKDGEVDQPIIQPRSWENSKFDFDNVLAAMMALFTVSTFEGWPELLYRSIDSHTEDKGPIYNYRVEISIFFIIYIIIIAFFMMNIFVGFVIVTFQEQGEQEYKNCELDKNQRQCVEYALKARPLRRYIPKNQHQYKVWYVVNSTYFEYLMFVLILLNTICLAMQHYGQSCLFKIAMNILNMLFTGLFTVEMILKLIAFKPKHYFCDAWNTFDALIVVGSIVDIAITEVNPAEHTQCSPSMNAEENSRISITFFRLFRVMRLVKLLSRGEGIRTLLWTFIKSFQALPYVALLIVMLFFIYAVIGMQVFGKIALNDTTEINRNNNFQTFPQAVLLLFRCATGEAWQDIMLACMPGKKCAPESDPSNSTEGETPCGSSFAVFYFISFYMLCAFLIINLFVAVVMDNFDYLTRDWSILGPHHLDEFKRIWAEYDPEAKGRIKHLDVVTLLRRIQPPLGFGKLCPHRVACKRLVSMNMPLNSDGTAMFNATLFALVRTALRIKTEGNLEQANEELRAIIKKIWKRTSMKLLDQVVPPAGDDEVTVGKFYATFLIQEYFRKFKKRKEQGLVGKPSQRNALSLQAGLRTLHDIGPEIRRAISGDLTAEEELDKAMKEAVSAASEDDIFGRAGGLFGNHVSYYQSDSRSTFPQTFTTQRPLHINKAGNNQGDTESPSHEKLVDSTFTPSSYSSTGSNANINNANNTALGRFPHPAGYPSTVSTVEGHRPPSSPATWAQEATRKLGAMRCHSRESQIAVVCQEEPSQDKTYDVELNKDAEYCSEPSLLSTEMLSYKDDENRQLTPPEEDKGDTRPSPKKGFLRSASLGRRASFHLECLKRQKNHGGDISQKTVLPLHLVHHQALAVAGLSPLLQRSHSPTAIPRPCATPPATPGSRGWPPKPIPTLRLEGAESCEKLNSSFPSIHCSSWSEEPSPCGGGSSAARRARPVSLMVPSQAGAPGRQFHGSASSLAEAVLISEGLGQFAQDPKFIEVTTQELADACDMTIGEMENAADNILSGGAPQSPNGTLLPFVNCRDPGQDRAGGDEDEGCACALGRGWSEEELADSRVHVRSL
Description: The taenia coli excised from a male guinea pig weighing from 250 to 300 g was cut into a length of 6 to 7 mm and suspended in an organ bath filled with Tylord's solution (sodium chloride 97 mM, potassium chloride 40 mM, sodium hydrogen carbonate 11.9 mM, disodium hydrogen phosphate 0.4 mM, glucose 5.5 mM; pH 7.1). The bath solution contained no calcium ions and was aerated with a mixture of 95% oxygen and 5% carbon dioxide by volume. To this solution were added 10 and 30 mM solutions of calcium chloride at 30 minute intervals to obtain a final concentration of 0.4 mM. The tension which developed 1n the taenia coli was measured by an isometric transducer. The organ bath was then washed twice or more with Tylord's solution containing no calcium ions after which it was allowed to equilibrate for 30 minutes. After the muscle had stabilised, test compound dissolved in physiological saline was added to the bath to a final concentration of 10^-8 g/ml, and the bath was incubated for 30 minutes. 30 and 100 mM solutions of calcium chloride were again added to the bath, and the developed tension was measured. From the magnitude of the calcium-induced contraction before and after the test drug had been added the inhibitory rate was calculated using the following formula: [formula] where: Co=contraction induced by calcium ion before a test drug was added: and
Ct=contraction induced by calcium ion after the test drug had been added.
In addition to the compounds of the invention, we also carried out the same test with the following compounds of the prior art: (±)-diltiazem, […], (±)-8-chlorodiltiazem (8-Cl-diltiazem). (±)-8-methoxydiltiazem (8-MeO-diltiazem) and (±)-8-benzyloxydiltiazem (8-BzO-diltiazem).
In the Table, the compounds of the invention are identified by the number of the one of the foregoing Examples in which the compound was prepared. The prior art compounds are identified by the abbreviated generic names shown above in parentheses.
All of the compounds except for that of Example 34 were employed as the hydrochlorides; that of Example 34 was employed as the fumarate.

[2] = tested on: SHR (spontaneously hypertensive rats); assay: Antihypertensive action in SHR; assay type: in vivo; settings: conscious male SHR, hydrochlorides, 24 hours
Description: Male SHR (spontaneously hypertensive rats), 23 to 30 weeks old, were anesthesized with sodium pentobarbital 50 mg/kg intraperitoneal administration), and a polyethylene cannula was inserted through the left femoral artery into the abdominal aorta. The other end of the cannula was led out of the body and fixed at the back of the neck. One week after the operation, when the animal had recovered from the stress of the surgery, the other end of the cannula was connected to a blood pressure measuring device, which was constructed according to the directions of Laffan et al. [Laffan, P.J., Peterson A., Hitch S,W. and Jeunelot C., Cardiovascular Res. 6. 319-324 (1972)], but with slight modifications. The blood pressure and heart rate of the conscious and […] SHR were measured. After the blood pressure and the heart rate had stabilised for more than one hour, the test drug was administered by […]. After administration of the test sample, the blood pressure and the heart rate were measured every 15 minutes over a period of 24 hours. The maximum decrease in blood pressure and the half-time of the blood pressure lowering activity thus determined are shown in Table 6.
All of the test compounds were employed as the hydrochlorides.

Compound | inhibition at 0.01 µg/mL [1] [%] | Half-time of hypotension action ([2]; Dose 10 mg/kg) [h] | change in vivo at 10 mg/kg ([2]; Rattus norvegicus, po, Dose 10 mg/kg, read-out: Maximum hypotension (%)) [%] | Half-time of hypotension action ([2]; Dose 5 mg/kg) [h] | change in vivo at 5 mg/kg ([2]; Rattus norvegicus, po, Dose 5 mg/kg, read-out: Maximum hypotension (%)) [%]
COc1ccc([C@@H]2Sc3cc(Oc4ccc(F)cc4)ccc3N(CCN(C)C)C(=O)[C@@H]2OC(C)=O)cc1F [Example 32, (2S, 3S)-3-Acetoxy-5-(2-dimethylaminoethyl)-2-(3-fluoro-4-methoxyphenyl)-8-(4-fluorophenoxy)-2,3-dihydro-1,5-benzothiazepin-4(5H)-one] | 100 | 13.8 | -41 |  | 
COc1ccc([C@@H]2Sc3cc(Oc4ccccc4)ccc3N(CCN(C)C)C(=O)[C@@H]2OC(C)=O)cc1 [Example 12, (2S, 3S)-3-Acetoxy-5-(2-dimethylaminoethyl)-2,3-dihydro-2-(4-methoxyphenyl1}-8-phenoxy-1,5-benzothiazepin-4(5H)-one] | 86 |  |  | 11.8 | -38
